According to patent publication US20160066550A1, “Animal Model Expressing Luciferase under Control of the Myelin Basic Protein Promoter (MBP-luci) and Use of the Model for Bioluminescence In Vivo Imaging” (SANOFI, priority 2009, published 2016):
Read-outs that look alike come from different tables or passages of the source.

What was measured:
[1] = system: MBP-luc line 171 heterozygous B6C3H mice; experiment: MBP-luci bioimaging, cuprizone model, demyelination phase, line 171 heterozygous; assay type: in vivo, mouse
Description: (§1) Mice were imaged at week 0 (baseline), week 3 and week 4 data normalized to the week 0 baseline.
As described above, mice were injected with 250 mg/kg D-luciferin through SC, IP or IV. After 5 (intravenous) or 8 (intraperitoneal or SC) minutes, mice were imaged using the IVIS 100 (Xenogen) for 16 minutes (60 seconds imaging and 60 seconds interval for 8 pictures at bin size 8). To quantify bioluminescence, identical circular regions of interest were positioned to encircle each mouse head region, and the imaging signal was quantitated as average radiance (photons/s/cm2/steridian) using […] software (version 2.5, Xenogen). The head region of interest was kept constant in area and positioning within all experiments. Data were normalized to bioluminescence at the initiation of treatment for each animal.
as §1

[2] = system: MBP-luci mice; assay type: in vivo, mouse; settings: 0.2% cuprizone diet; for imaging signal drop: MBP 5k-luci line 171 (B6C3)
Description: To quantify bioluminescence, identical circular regions of interest were positioned to encircle each mouse head region, and the imaging signal was quantitated as average radiance (photons/s/cm2/steridian) using […] software (version 2.5, Xenogen).
As further proof, a MBP 5k-luci line 171 (B6C3 strain) was tested. […] There was significant imaging signal drop with cuprizone treatment (demyelination). For example, there is 43% signal drop from wk 0 to wk 4 and 74% signal drop from wk 0 to wk 6.
Three different MBP-luci lines (line 171 B6C3H het strain, line 121 C57BL/6 heterozygous strain and line 171 B6C3H homozygous strain) were compared by bioimaging and Luxol Fast Blue (LFB; myelin stain) histology. Mice were placed on a diet containing 0.2% cuprizone for 4 or 5 weeks. Imaging data were normalized to week 0 baseline measurements. At the end of each study, mouse brains were harvested and serial paraffin sections were stained for myelin with LFB. Average qualitative LFB score (0 to 5) was shown in the chart of FIG. 21. […] Line 171 B6C3H homozygous mice had the largest bioimaging signal reduction during cuprizone food feeding in the reference to their base line imaging before cuprizone food feeding. For example, after three weeks on the cuprizone diet, 171 B6C3H homozygous mice had 72% signal reduction (week 3 reference to week 0, p<0.05), while line 171 B6C3H heterozygous mice had 45% bioimaging signal reduction (reference to week 0, p<0.05). Line 121 C57 BL/6 heterozygous mice had the smallest reduction in luciferase signal (33% reduction at week 3 over week 0, p<0.05).

Structure (SMILES) | imaging signal vs vehicle control ([1]; 10 mg/kg oral, week 3 and week 4 on cuprizone diet, first study (FIG. 17)) | cuprizone-induced bioimaging signal reduction ([1]; 10 mg/kg, week 3, second study (FIG. 18), vehicle 47% reduction, p=0.028) [%] | bioimaging signal increase ([1]; 10 mg/kg, week 4, second study (FIG. 18), vehicle 25% reduction) [%] | transgene activity compared to the vehicle control group ([1]; 10 mg/kg, weeks 3 and 4, second study (FIG. 18)) | imaging signal drop ([2]; wk 0 to wk 4) [%] | imaging signal drop ([2]; wk 0 to wk 6) [%] | reduction in luciferase signal ([2]; week 3 over week 0, line 121 C57 BL/6 heterozygous, p<0.05) [%] | bioimaging signal reduction ([2]; week 3 vs week 0, line 171 B6C3H heterozygous, p<0.05) [%] | bioimaging signal reduction ([2]; week 3 vs week 0, line 171 B6C3H homozygous, p<0.05) [%]
OCCOCCN1CCN(C2=Nc3ccccc3Sc3ccccc32)CC1 [QTP, Quetiapine] | significant increases | 25 | 6 | significantly greater transgene activity | – | – | – | – | –
O=C(NN=C1CCCCC1)C(=O)NN=C1CCCCC1 [cuprizone, bis-cyclohexanone oxaidihydrazone] | – | – | – | – | 43 | 74 | 33 | 45 | 72
